# Measured values as given in ChEMBL document CHEMBL1201862, “PubChem BioAssay data set” (2004).
# Activity calls are given as the source filed them.
# Legend:
# HEK293 = assay: inhibitors of LMP1-driven NF-kB reporter, dose response, cell-based, HEK293, luciferase, cherry-pick (AID 588343); type: functional; settings: Homo sapiens
# [1] = Shn3 3'UTR reporter inhibitors, dose response, cell-based, Clone20 osteoblasts, firefly luciferase, cherry-picked (AID 624132); type: functional;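 note: firefly luciferase luminescence from reporter carrying the Shn3 3'UTR in osteoblasts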
# [2] = HepG2 cell cytotoxicity, dose response, cytotoxicity control for Shn3 inhibitor project, CellTiter-Glo, cherry-picked (AID 624134); type: functional, cell-based
# [3] = control 3'UTR Renilla luciferase suppression, dose response, counter-screen for Shn3 inhibitor project, cell-based, Clone20-Shn3RL, cherry-picked (AID 624133); type: functional
# [4] = inhibitors of firefly luciferase expression or activity, dose response, H4 neuroglioma cells, luminescence (AID 1990); type: functional, cell-based
# [5] = Luminescence Cell-Based Dose Response HTS to Identify Inhibitors of 5'UTR Stem-Loop Driven Prion Protein mRNA Translation in H4 Neuroglioblastoma Cells. [Related pubchem assays: 1827 (Project Summary), 1813 (Primary HTS)]; type: functional
# Beta-galactosidase = Beta-galactosidase (Escherichia coli, UniProt Q8VNN2); assay: PubChem AID 485352; type: functional
# Chain of Beta-galactosidase (Q8VNN2 whole entry): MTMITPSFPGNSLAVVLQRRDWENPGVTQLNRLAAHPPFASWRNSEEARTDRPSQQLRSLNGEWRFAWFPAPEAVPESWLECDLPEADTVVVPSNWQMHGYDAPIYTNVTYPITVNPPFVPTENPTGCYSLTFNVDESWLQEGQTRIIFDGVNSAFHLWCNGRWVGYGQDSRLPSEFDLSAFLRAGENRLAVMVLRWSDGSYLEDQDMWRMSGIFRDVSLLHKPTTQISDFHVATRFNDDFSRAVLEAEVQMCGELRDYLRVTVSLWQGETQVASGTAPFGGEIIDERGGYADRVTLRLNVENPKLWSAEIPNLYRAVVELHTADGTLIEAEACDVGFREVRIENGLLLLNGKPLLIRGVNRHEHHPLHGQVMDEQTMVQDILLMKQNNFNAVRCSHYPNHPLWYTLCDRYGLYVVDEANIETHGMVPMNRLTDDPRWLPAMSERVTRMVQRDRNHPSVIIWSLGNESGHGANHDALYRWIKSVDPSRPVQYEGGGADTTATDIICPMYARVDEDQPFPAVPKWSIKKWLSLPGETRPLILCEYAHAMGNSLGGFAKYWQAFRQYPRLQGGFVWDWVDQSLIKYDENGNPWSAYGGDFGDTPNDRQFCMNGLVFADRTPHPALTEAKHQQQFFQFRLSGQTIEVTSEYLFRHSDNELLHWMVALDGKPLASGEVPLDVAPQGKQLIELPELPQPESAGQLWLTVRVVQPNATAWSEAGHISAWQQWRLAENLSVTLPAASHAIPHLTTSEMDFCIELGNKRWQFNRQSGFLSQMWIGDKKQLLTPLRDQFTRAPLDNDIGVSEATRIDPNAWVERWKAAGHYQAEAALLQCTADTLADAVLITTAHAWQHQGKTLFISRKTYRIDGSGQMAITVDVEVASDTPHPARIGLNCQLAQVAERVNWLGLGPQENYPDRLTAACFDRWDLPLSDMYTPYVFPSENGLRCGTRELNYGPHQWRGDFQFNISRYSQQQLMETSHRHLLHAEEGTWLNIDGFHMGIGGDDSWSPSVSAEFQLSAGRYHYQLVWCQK
# [6] = inhibitors of SNCA 5'UTR-driven reporter translation, confirmation, H4 neuroglioma cells, luminescence (AID 1988); type: functional, cell-based
# [7] = target: T1, Type-1 angiotensin II receptor (Homo sapiens, UniProt P30556); assay: AT1 receptor antagonists, dose response, selectivity assay for APJ receptor antagonist project, cell-based, uHTS hits (AID 463214); type: functional;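 note: antagonist potency against angiotensin II stimulated AT1 response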
# T1 sequence (P30556 whole entry): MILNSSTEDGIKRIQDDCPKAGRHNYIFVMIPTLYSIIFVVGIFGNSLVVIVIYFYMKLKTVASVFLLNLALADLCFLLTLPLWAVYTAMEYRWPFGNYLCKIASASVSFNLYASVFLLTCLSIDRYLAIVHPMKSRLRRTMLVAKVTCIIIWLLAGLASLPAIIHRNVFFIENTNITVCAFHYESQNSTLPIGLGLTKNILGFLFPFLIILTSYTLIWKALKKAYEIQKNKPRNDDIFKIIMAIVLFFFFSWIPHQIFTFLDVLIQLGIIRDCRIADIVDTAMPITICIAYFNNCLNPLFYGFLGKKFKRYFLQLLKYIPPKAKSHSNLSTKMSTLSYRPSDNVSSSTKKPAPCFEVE
# [8] = target: Induced myeloid leukemia cell differentiation protein Mcl-1 (Homo sapiens, UniProt Q07820); type: functional
# Chain of Induced myeloid leukemia cell differentiation protein Mcl-1 (Q07820 whole entry): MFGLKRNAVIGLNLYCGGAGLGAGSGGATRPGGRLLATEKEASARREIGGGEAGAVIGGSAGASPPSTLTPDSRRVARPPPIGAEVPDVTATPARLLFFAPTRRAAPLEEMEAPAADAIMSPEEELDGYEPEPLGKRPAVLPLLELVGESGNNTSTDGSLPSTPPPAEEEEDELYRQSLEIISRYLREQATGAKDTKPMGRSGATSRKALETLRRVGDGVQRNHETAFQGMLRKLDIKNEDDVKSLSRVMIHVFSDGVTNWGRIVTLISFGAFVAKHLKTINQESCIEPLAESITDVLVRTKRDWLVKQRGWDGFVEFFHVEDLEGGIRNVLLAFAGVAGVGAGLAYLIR
# Vero = assay: cells; type: functional; settings: Chlorocebus sabaeus
# Paired box protein Pax-8 = Paired box protein Pax-8 (Homo sapiens, UniProt Q06710); assay: inhibitors of PAX8-driven TPO luciferase reporter, dose response, RMG-I cells, cherry-pick (AID 687027); type: functional, cell-based;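 note: luciferase reporter driven by Pax8 target thyroperoxidase promoter measured by SteadyGlo luminescence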
# Chain of Paired box protein Pax-8 (Q06710 whole entry, the tested form may be a part): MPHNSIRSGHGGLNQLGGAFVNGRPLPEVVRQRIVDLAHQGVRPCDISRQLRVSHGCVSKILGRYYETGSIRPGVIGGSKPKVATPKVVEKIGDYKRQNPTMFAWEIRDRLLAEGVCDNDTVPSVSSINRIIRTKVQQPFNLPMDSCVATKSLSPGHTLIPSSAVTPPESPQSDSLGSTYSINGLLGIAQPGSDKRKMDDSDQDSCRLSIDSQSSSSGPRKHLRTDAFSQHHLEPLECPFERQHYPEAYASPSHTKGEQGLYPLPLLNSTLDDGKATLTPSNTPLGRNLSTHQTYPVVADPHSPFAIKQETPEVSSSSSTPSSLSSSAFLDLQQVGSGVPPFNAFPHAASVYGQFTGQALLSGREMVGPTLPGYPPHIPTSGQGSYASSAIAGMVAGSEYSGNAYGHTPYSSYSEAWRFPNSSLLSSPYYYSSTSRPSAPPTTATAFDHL
# [9] = inhibitors of HIV Env-driven cell fusion, dose response, cherry-pick (AID 652057); type: functional, cell-based
# [10] = ZM109 Env clade C HIV-1 fusion inhibitors, dose response, HeLa effector, CEM target cells, luciferase, cherry-pick (AID 652058); type: functional, cell-based
# [11] = off-target signal loss in HeLa-CEM21 co-culture – HeLa F-luc CTL cells, cherry-picked, counter-screen for HIV-1 Env fusion inhibitor project, dose response (AID 652040); type: functional, cell-based;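 note: potency for signal decrease marking cytotoxic or nonspecific inhibition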
# [12] = inhibitors of clade B AD8 Env fusion, dose response, cell-based, cherry-pick (AID 652062); type: functional;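 note: luciferase signal from cell-cell fusion driven by HIV-1 clade B AD8 Env; potency is for inhibitors of fusion seen as a drop in luminescence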
# Aminopeptidase N = target: T2, Aminopeptidase N (Plasmodium falciparum FcB1/Columbia, UniProt O96935); assay: P. falciparum M1AAP inhibitors, biochemical, fluorogenic H-Leu-NHMec substrate, 1536-well (AID 1445); design: species or system Plasmodium falciparum 3D7, 3D7
# T2 sequence (O96935 whole entry): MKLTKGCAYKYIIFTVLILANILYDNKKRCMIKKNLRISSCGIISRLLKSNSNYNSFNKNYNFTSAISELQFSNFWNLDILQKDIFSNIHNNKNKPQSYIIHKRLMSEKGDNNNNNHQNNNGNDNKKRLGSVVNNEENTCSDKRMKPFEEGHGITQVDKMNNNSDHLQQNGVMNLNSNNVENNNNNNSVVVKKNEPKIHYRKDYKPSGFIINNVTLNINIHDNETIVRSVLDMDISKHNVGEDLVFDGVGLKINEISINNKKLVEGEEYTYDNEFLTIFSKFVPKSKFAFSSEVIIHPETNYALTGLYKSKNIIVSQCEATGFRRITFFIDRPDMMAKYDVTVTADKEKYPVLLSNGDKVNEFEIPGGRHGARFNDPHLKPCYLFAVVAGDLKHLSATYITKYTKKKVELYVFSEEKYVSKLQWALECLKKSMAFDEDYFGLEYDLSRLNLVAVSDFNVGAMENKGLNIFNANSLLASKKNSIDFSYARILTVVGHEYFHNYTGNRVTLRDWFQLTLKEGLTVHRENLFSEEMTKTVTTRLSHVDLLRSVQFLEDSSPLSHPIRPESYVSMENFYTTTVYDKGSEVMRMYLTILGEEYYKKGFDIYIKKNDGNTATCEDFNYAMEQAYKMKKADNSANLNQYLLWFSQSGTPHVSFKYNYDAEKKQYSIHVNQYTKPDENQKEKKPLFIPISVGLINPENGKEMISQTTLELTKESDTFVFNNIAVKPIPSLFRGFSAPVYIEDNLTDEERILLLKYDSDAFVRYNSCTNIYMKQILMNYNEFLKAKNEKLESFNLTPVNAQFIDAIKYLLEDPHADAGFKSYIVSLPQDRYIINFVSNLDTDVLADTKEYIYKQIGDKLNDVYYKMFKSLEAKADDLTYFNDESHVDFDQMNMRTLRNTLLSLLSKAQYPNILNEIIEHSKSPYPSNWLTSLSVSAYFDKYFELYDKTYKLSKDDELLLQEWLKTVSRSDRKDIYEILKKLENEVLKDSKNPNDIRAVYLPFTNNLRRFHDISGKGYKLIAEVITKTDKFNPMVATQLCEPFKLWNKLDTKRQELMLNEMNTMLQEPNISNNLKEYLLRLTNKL
# [13] = target: T3, Polyadenylate-binding protein 1 (Homo sapiens, UniProt P11940); assay: PABP1 MLLE–PAM2 interaction inhibitors, dose response, miRNA deadenylation inhibitor project, biochemical, fluorescence polarization, Cy5-PAM2 peptide, secondary (AID 602260); type: functional; settings: read-out: IC50_Mean
# T3 sequence (P11940 whole entry): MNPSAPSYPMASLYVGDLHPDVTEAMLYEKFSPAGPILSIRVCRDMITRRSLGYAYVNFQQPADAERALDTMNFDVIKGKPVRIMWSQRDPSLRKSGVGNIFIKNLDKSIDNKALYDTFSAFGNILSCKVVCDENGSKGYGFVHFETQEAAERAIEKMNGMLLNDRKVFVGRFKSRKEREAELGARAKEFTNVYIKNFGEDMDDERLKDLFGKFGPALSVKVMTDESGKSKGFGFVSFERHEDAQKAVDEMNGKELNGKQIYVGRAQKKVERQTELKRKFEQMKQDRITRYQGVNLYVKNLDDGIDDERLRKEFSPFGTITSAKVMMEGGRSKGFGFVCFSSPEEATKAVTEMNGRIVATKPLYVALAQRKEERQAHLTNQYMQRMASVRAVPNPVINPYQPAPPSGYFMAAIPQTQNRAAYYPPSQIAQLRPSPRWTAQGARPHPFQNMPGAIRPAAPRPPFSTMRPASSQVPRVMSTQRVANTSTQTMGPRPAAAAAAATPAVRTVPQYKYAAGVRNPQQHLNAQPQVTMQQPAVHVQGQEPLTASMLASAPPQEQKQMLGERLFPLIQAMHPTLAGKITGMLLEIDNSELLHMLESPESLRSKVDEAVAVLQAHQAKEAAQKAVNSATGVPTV
# [14] = target: T3, Polyadenylate-binding protein 1; assay: PABP1 MLLE–PAM2 binding inhibitor potency, dose response, biochemical, fluorescence polarization, FITC-PAM2 peptide (AID 602259); type: functional; settings: read-out: IC50_Mean
# [15] = target: T4, Replicative DNA helicase DnaB (Mycobacterium tuberculosis, UniProt P9WMR3); assay: DnaB intein splicing inhibitors, dose response, biochemical, cell-free fluorescence (AID 449749); type: functional
# T4 sequence (P9WMR3 whole entry): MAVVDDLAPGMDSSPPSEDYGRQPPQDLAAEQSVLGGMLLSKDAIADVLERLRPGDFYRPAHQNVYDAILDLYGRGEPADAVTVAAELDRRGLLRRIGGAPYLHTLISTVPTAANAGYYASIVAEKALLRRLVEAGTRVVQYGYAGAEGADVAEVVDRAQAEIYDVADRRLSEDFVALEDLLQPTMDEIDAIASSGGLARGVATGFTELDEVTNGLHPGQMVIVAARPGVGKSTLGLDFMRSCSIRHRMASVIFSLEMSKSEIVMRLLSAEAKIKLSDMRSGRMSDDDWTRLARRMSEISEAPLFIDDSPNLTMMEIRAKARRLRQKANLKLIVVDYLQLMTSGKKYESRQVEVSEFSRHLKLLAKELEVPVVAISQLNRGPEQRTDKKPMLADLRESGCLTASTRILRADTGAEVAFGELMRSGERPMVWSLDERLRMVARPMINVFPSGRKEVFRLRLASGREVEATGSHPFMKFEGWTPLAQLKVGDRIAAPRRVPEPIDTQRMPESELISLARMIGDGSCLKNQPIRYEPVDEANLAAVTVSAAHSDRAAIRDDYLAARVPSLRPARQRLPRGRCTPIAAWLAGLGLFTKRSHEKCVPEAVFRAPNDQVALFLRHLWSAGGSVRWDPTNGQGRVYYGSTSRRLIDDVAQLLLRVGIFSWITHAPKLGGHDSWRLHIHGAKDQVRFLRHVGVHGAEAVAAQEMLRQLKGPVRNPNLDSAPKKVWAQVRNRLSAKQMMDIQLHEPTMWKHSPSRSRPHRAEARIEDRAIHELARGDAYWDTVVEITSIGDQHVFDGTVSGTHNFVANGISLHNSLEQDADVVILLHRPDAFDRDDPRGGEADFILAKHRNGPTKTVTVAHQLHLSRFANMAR
# Protein RecA = target: T5, Protein RecA (Mycobacterium tuberculosis, UniProt P9WHJ3); assay: Fluorescence Cell-Free Homogeneous Dose Retest to Identify Inhibitors of RecA-Intein Splicing Activity. [Related pubchem assays (depositor defined):AID2097, AID2223, AID489010, AID492950]; type: functional
# T5 sequence (P9WHJ3 whole entry): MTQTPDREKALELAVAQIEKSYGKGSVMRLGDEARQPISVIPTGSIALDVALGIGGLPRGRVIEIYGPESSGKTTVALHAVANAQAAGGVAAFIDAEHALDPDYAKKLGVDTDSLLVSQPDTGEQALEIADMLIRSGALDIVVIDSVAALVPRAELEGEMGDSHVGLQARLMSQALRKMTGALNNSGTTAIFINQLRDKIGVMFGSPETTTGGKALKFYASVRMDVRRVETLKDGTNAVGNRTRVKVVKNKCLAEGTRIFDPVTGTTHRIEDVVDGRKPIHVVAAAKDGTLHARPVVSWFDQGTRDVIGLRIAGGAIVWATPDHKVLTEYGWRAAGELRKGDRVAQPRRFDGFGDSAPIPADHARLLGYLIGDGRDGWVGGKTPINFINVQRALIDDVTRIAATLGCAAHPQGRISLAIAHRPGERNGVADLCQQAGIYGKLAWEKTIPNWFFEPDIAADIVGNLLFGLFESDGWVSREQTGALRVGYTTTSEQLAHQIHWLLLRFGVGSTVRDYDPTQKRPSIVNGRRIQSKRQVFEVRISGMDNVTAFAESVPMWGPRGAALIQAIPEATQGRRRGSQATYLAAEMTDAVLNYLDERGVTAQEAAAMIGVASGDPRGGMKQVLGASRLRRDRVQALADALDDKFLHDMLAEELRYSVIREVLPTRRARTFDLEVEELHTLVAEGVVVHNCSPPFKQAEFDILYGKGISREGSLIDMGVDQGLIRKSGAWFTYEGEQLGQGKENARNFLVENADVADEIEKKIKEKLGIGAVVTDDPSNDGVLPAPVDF
smiles,measurement,setting,value
OC1(c2cccc(C(F)(F)F)c2)CCN(c2[nH]cnc3c4cc(F)ccc4nc2-3)CC1,AC50,HEK293,7.02 µM (active)
same,AC50,[1],1.87 µM (active)
same,AC50,[2],46 µM (active)
same,AC50,[3],6.11 µM (active)
NNc1nc(-c2ccccc2)cc(-c2ccccc2)n1,EC50,[4],> 120 µM (not active)
same,EC50,[5],> 120 µM (not active)
same,EC50,Beta-galactosidase,> 40 µM (inactive)
same,EC50,[6],> 120 µM (not active)
same,IC50,[7],13 µM (active)
Cc1ccc(/C=C/C(=O)NCc2ccccn2)o1,IC50,[8],6.32 µM (active)
COc1cccc(/C=C2\SC(=S)N(CCC(=O)NCCc3ccc(O)cc3)C2=O)c1,CC50,Vero,16.1 µM (active)
same,AC50,Paired box protein Pax-8,4.57 µM (active)
O=C(Nc1cc(Cl)cc(Cl)c1)C1CCC(=O)N1Cc1ccccc1Cl (stereo unspecified),AC50,[9],7.12 µM (active)
same,AC50,[10],19.3 µM (active)
same,AC50,[11],59.2 µM (active)
same,AC50,[12],8.36 µM (active)
NNC(=O)c1cccc(COc2ccc3c(c2)CCC3)c1,AC50,HEK293,2.12 µM (active)
COc1cc(/C=C2\SC(=S)N(CC(=O)Nc3ccc(O)cc3)C2=O)cc(OC)c1OC,IC50,[8],3.74 µM (active)
Cc1ccc2nc3c(nc2c1C)C(O)=C3O,IC50,Aminopeptidase N,48.5 µM (active)
Cc1cccc(-c2nc3ccccc3c(=O)n2NC(=O)c2cccs2)c1,IC50,Aminopeptidase N,44.1 µM (active)
CCn1c(COc2ccc(Cl)cc2)nnc1SCc1nc2ccccc2[nH]1,AC50,[9],6.83 µM (active)
same,AC50,[10],12 µM (active)
same,AC50,[11],23.5 µM (active)
same,AC50,[12],5.17 µM (active)
COc1ccc(NS(=O)(=O)c2ccc(N3CCCC3)c(NC(S)=Nc3ccc(SC(F)F)cc3)c2)cc1,IC50,[13],> 66 µM (inactive)
same,IC50,[14],> 66 µM (inactive)
same,AC50,Paired box protein Pax-8,16.4 µM (active)
O=C(CN1CCC(NC(=O)c2ccccc2F)CC1)Nc1ccc2c(c1)OCO2,IC50,Aminopeptidase N,34 µM (active)
CC1CCN(c2ccc(-c3ccc(NC(=O)C(F)(F)F)cc3)nn2)CC1,AC50,HEK293,2.7 µM (active)
O=C(c1ccc2c(c1)OCO2)N(CC1CCCO1)C1(C(=O)NC2CCCCC2)CCCCC1 (stereo unspecified),AC50,[9],5.73 µM (active)
same,AC50,[10],4.79 µM (active)
same,AC50,[11],9.67 µM (active)
same,AC50,[12],13 µM (active)
CCN(C[C@H]1N[C@@](C)(C(=O)OC)[C@H]2C(=O)N(Cc3ccccc3)C(=O)[C@@H]12)S(=O)(=O)c1ccc(C(C)(C)C)cc1,AC50,[9],5.72 µM (active)
same,AC50,[10],5.16 µM (active)
same,AC50,[11],6.31 µM (active)
same,AC50,[12],6.14 µM (active)
CCc1nc2ccc(C(=O)N3CCN(C(=O)c4ccco4)CC3)cn2c1N(C)Cc1ccc(OC)cc1,AC50,[9],2.72 µM (active)
same,AC50,[10],7.5 µM (active)
same,AC50,[11],10.4 µM (active)
same,AC50,[12],13.5 µM (active)
Cc1csc(N=Nc2ccc(N(C)C)cc2)[n+]1[O-],AC50,HEK293,2.84 µM (active)
Cc1cccc(NC(=S)N/N=C2/CCCCc3ccccc32)c1,EC50,Beta-galactosidase,> 40 µM (inactive)
same,IC50,[7],> 40 µM (not active)
same,AC50,[15],34 µM (active)
same,EC50,Protein RecA,> 380 µM (inactive)
